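Protocol summary: plate cells (96-well), add compound at 5 concentrations, incubate 48 h, interpolate endpoints linearly. Here, GI50 denotes the concentration required for 50% inhibition of growth. At the TGI there is no net growth.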
What was measured:
Assay in all cases: NCI tumour cell line growth inhibition, 48 h; in the data active = GI50 below about 0.43 µM; inactive = the rest
786-0 renal = test system: 786-0 renal
A498 renal = test system: A498 renal
A549 NSCLC = test system: A549 NSCLC
ACHN renal = test system: ACHN renal
BT-549 breast = test system: BT-549 breast
CAKI-1 renal = test system: CAKI-1 renal
CCRF-CEM leukemia = test system: CCRF-CEM leukemia
COLO 205 colon = test system: COLO 205 colon
DU-145 prostate = test system: DU-145 prostate
EKVX NSCLC = test system: EKVX NSCLC
HCC-2998 colon = test system: HCC-2998 colon
HCT-116 colon = test system: HCT-116 colon
HCT-15 colon = test system: HCT-15 colon
HL-60(TB) leukemia = test system: HL-60(TB) leukemia
HOP-62 NSCLC = test system: HOP-62 NSCLC
HOP-92 NSCLC = test system: HOP-92 NSCLC
HS 578T breast = test system: HS 578T breast
HT29 colon = test system: HT29 colon
IGROV1 ovarian = test system: IGROV1 ovarian
K-562 leukemia = test system: K-562 leukemia
KM12 colon = test system: KM12 colon
M14 melanoma = test system: M14 melanoma
MALME-3M melanoma = test system: MALME-3M melanoma
MCF7 breast = test system: MCF7 breast
MDA-MB-231 breast = test system: MDA-MB-231 breast
MDA-MB-435 = test system: MDA-MB-435
MOLT-4 leukemia = test system: MOLT-4 leukemia
NCI-H226 lung = test system: NCI-H226 lung
NCI-H23 lung = test system: NCI-H23 lung
NCI-H460 lung = test system: NCI-H460 lung
NCI-H522 lung = test system: NCI-H522 lung
NCI/ADR-RES ovarian = test system: NCI/ADR-RES ovarian
OVCAR-4 ovarian = test system: OVCAR-4 ovarian
OVCAR-5 ovarian = test system: OVCAR-5 ovarian
OVCAR-8 ovarian = test system: OVCAR-8 ovarian
PC-3 prostate = test system: PC-3 prostate
RPMI-8226 leukemia = test system: RPMI-8226 leukemia
RXF 393 renal = test system: RXF 393 renal
SF-268 CNS = test system: SF-268 CNS
SF-295 CNS = test system: SF-295 CNS
SF-539 CNS = test system: SF-539 CNS
SK-MEL-2 melanoma = test system: SK-MEL-2 melanoma
SK-MEL-28 melanoma = test system: SK-MEL-28 melanoma
SK-MEL-5 melanoma = test system: SK-MEL-5 melanoma
SN12C renal = test system: SN12C renal
SNB-19 CNS = test system: SNB-19 CNS
SNB-75 CNS = test system: SNB-75 CNS
SR leukemia = test system: SR leukemia
SW-620 colon = test system: SW-620 colon
T-47D breast = test system: T-47D breast
TK-10 renal = test system: TK-10 renal
U251 CNS = test system: U251 CNS
UACC-257 melanoma = test system: UACC-257 melanoma
UACC-62 melanoma = test system: UACC-62 melanoma
UO-31 renal = test system: UO-31 renal
LOX IMVI melanoma = test system: LOX IMVI melanoma
OVCAR-3 ovarian = test system: OVCAR-3 ovarian
SK-OV-3 ovarian = test system: SK-OV-3 ovarian

CNC(=O)c1c(NC(=O)c2ccccc2C(F)(F)F)sc2c1CCC(=O)C2
8.28 µM: TGI (UACC-257 melanoma)
1.95 µM: TGI (UO-31 renal)
> 100 µM: TGI (786-0 renal) | TGI (A549 NSCLC) | TGI (BT-549 breast) | TGI (CCRF-CEM leukemia) | TGI (DU-145 prostate) | TGI (HOP-62 NSCLC) | TGI (HS 578T breast) | TGI (K-562 leukemia) | TGI (MOLT-4 leukemia) | TGI (NCI-H460 lung) | TGI (OVCAR-8 ovarian) | TGI (SF-268 CNS) | TGI (SN12C renal) | TGI (SNB-19 CNS) | TGI (SR leukemia) | TGI (TK-10 renal) | TGI (U251 CNS)
9.66 µM: TGI (HT29 colon)
54.9 µM: TGI (SK-MEL-28 melanoma)
14.6 µM: TGI (PC-3 prostate)
3.91 µM: TGI (UACC-62 melanoma)
4.78 µM: TGI (MDA-MB-231 breast)
10.5 µM: TGI (HCT-15 colon)
6.24 µM: TGI (A498 renal)
active: GI50 (ACHN renal) 0.397 µM | GI50 (CCRF-CEM leukemia) 0.348 µM | GI50 (HCT-116 colon) 0.384 µM | GI50 (HCT-15 colon) 0.37 µM | GI50 (HL-60(TB) leukemia) 0.339 µM | GI50 (K-562 leukemia) 0.417 µM | GI50 (NCI-H522 lung) 0.347 µM | GI50 (PC-3 prostate) 0.426 µM | GI50 (RPMI-8226 leukemia) 0.278 µM | GI50 (SW-620 colon) 0.363 µM
3.39 µM: TGI (HOP-92 NSCLC)
15.2 µM: TGI (HCC-2998 colon)
11.9 µM: TGI (MCF7 breast)
7.6 µM: TGI (SK-MEL-2 melanoma)
4 µM: TGI (OVCAR-4 ovarian)
4.98 µM: TGI (T-47D breast)
2.55 µM: TGI (CAKI-1 renal)
3.72 µM: TGI (SK-MEL-5 melanoma)
12.2 µM: TGI (SW-620 colon)
16.8 µM: TGI (KM12 colon)
13.4 µM: TGI (HL-60(TB) leukemia) | TGI (NCI/ADR-RES ovarian)
5.58 µM: TGI (OVCAR-5 ovarian)
12.1 µM: TGI (HCT-116 colon)
6.82 µM: TGI (SNB-75 CNS)
6.33 µM: TGI (MALME-3M melanoma)
37.6 µM: TGI (EKVX NSCLC)
3.12 µM: TGI (COLO 205 colon)
17.8 µM: TGI (IGROV1 ovarian)
7.61 µM: TGI (NCI-H23 lung)
11.2 µM: TGI (MDA-MB-435)
inactive: GI50 (786-0 renal) 3.8 µM | GI50 (A498 renal) 2.09 µM | GI50 (A549 NSCLC) 3.28 µM | GI50 (BT-549 breast) 2.54 µM | GI50 (CAKI-1 renal) 0.464 µM | GI50 (COLO 205 colon) 1.29 µM | GI50 (DU-145 prostate) 4.45 µM | GI50 (EKVX NSCLC) 1.99 µM | GI50 (HCC-2998 colon) 2.96 µM | GI50 (HOP-62 NSCLC) 3.44 µM | GI50 (HOP-92 NSCLC) 1.2 µM | GI50 (HS 578T breast) 3.01 µM | GI50 (HT29 colon) 1.45 µM | GI50 (IGROV1 ovarian) 1.87 µM | GI50 (KM12 colon) 4.29 µM | GI50 (M14 melanoma) 2.51 µM | GI50 (MALME-3M melanoma) 2.26 µM | GI50 (MCF7 breast) 1.91 µM | GI50 (MDA-MB-231 breast) 2 µM | GI50 (MDA-MB-435) 2.72 µM | GI50 (MOLT-4 leukemia) 1.2 µM | GI50 (NCI-H226 lung) 2.46 µM | GI50 (NCI-H23 lung) 1.33 µM | GI50 (NCI-H460 lung) 3.27 µM | GI50 (NCI/ADR-RES ovarian) 1.97 µM | GI50 (OVCAR-4 ovarian) 1.58 µM | GI50 (OVCAR-5 ovarian) 1.48 µM | GI50 (OVCAR-8 ovarian) 1.41 µM | GI50 (RXF 393 renal) 1.12 µM | GI50 (SF-268 CNS) 3.19 µM | GI50 (SF-295 CNS) 2.51 µM | GI50 (SF-539 CNS) 0.678 µM | GI50 (SK-MEL-2 melanoma) 2.77 µM | GI50 (SK-MEL-28 melanoma) 3.59 µM | GI50 (SK-MEL-5 melanoma) 1.7 µM | GI50 (SN12C renal) 2.9 µM | GI50 (SNB-19 CNS) 3.18 µM | GI50 (SNB-75 CNS) 1.54 µM | GI50 (SR leukemia) 0.538 µM | GI50 (T-47D breast) 0.528 µM | GI50 (TK-10 renal) 1.54 µM | GI50 (U251 CNS) 0.817 µM | GI50 (UACC-257 melanoma) 2.76 µM | GI50 (UACC-62 melanoma) 1.45 µM | GI50 (UO-31 renal) 0.574 µM
8.01 µM: TGI (NCI-H226 lung)
4.2 µM: TGI (RXF 393 renal)
2.03 µM: TGI (ACHN renal)
7.63 µM: TGI (SF-295 CNS)
2.22 µM: TGI (SF-539 CNS)
2.33 µM: TGI (NCI-H522 lung)
33.5 µM: TGI (M14 melanoma)

Cc1ccc(S(=O)(=O)c2nc(-c3ccc(F)cc3)oc2S(C)(=O)=O)cc1
3.67 µM: TGI (T-47D breast)
5.57 µM: TGI (HL-60(TB) leukemia)
inactive: GI50 (786-0 renal) > 100 µM | GI50 (A498 renal) > 100 µM | GI50 (A549 NSCLC) > 100 µM | GI50 (ACHN renal) 1.74 µM | GI50 (BT-549 breast) 14.1 µM | GI50 (CAKI-1 renal) 4.83 µM | GI50 (CCRF-CEM leukemia) 2.92 µM | GI50 (DU-145 prostate) > 100 µM | GI50 (EKVX NSCLC) > 100 µM | GI50 (HCC-2998 colon) > 100 µM | GI50 (HCT-116 colon) 1.53 µM | GI50 (HCT-15 colon) 3.95 µM | GI50 (HL-60(TB) leukemia) 1.65 µM | GI50 (HOP-62 NSCLC) > 100 µM | GI50 (HOP-92 NSCLC) 6.69 µM | GI50 (IGROV1 ovarian) > 100 µM | GI50 (K-562 leukemia) 2.94 µM | GI50 (KM12 colon) > 100 µM | GI50 (LOX IMVI melanoma) 2.04 µM | GI50 (M14 melanoma) > 100 µM | GI50 (MCF7 breast) 3.78 µM | GI50 (MDA-MB-231 breast) > 100 µM | GI50 (MDA-MB-435) 13.7 µM | GI50 (MOLT-4 leukemia) 4.61 µM | GI50 (NCI-H226 lung) > 20.2 µM | GI50 (NCI-H23 lung) 3.13 µM | GI50 (NCI-H460 lung) > 100 µM | GI50 (NCI-H522 lung) 2.27 µM | GI50 (NCI/ADR-RES ovarian) > 31.8 µM | GI50 (OVCAR-3 ovarian) > 100 µM | GI50 (OVCAR-4 ovarian) > 100 µM | GI50 (OVCAR-5 ovarian) > 100 µM | GI50 (OVCAR-8 ovarian) 6.88 µM | GI50 (PC-3 prostate) > 21.9 µM | GI50 (RPMI-8226 leukemia) > 100 µM | GI50 (RXF 393 renal) 5.16 µM | GI50 (SF-268 CNS) > 35 µM | GI50 (SF-295 CNS) > 100 µM | GI50 (SF-539 CNS) > 100 µM | GI50 (SK-MEL-2 melanoma) > 21 µM | GI50 (SK-MEL-28 melanoma) > 100 µM | GI50 (SK-MEL-5 melanoma) > 100 µM | GI50 (SK-OV-3 ovarian) > 93.5 µM | GI50 (SN12C renal) 8.51 µM | GI50 (SNB-19 CNS) > 77.6 µM | GI50 (SNB-75 CNS) > 23.5 µM | GI50 (SR leukemia) 1.06 µM | GI50 (SW-620 colon) 2.4 µM | GI50 (T-47D breast) 1.73 µM | GI50 (U251 CNS) 16.9 µM | GI50 (UO-31 renal) > 100 µM
> 100 µM: TGI (786-0 renal) | TGI (A498 renal) | TGI (A549 NSCLC) | TGI (BT-549 breast) | TGI (CAKI-1 renal) | TGI (CCRF-CEM leukemia) | TGI (DU-145 prostate) | TGI (EKVX NSCLC) | TGI (HCC-2998 colon) | TGI (HCT-15 colon) | TGI (HOP-62 NSCLC) | TGI (HOP-92 NSCLC) | TGI (IGROV1 ovarian) | TGI (K-562 leukemia) | TGI (KM12 colon) | TGI (M14 melanoma) | TGI (MCF7 breast) | TGI (MDA-MB-231 breast) | TGI (MDA-MB-435) | TGI (MOLT-4 leukemia) | TGI (NCI-H226 lung) | TGI (NCI-H23 lung) | TGI (NCI-H460 lung) | TGI (NCI/ADR-RES ovarian) | TGI (OVCAR-3 ovarian) | TGI (OVCAR-4 ovarian) | TGI (OVCAR-5 ovarian) | TGI (OVCAR-8 ovarian) | TGI (PC-3 prostate) | TGI (RPMI-8226 leukemia) | TGI (RXF 393 renal) | TGI (SF-268 CNS) | TGI (SF-295 CNS) | TGI (SF-539 CNS) | TGI (SK-MEL-2 melanoma) | TGI (SK-MEL-28 melanoma) | TGI (SK-MEL-5 melanoma) | TGI (SK-OV-3 ovarian) | TGI (SN12C renal) | TGI (SNB-19 CNS) | TGI (SNB-75 CNS) | TGI (U251 CNS) | TGI (UACC-62 melanoma) | TGI (UO-31 renal)
> 52.9 µM: TGI (HS 578T breast)
2.94 µM: TGI (HCT-116 colon)
3.13 µM: TGI (ACHN renal)

Source: PubChem BioAssay (NCI)
